According to PubChem BioAssay AID1918942 (Molecular Pharmacology Branch, DTP, NCI, 2023):

Tested on: 743489-274-T-PDC complex spheroid viability
Test: Anticancer human tumor 743489-274-T-PDC patient-derived renal cell carcinoma cell line growth inhibition
Details: for IC50: curve of first compound; for viability, T/C: stronger effect = lower value
Summary of the method: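 Complex spheroids of tumor cells with HUVEC and human MSCs, exposed to iadademstat combined with other agents. Each agent tested in half-log steps from near clinical Cmax (else 10 microM top), DMSO ≤0.25%.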

[1] = second compound 0.1 µM, first compound 0.0316 µM
[2] = second compound 0.1 µM, first compound 0.1 µM
[3] = second compound 0.1 µM, first compound 0.316 µM
[4] = second compound 0.1 µM, first compound 1 µM
[5] = second compound 0.1 µM, first compound 3.16 µM
[6] = second compound 0.1 µM, first compound 10 µM
[7] = second compound 0.316 µM, first compound 0.0316 µM
[8] = second compound 0.316 µM, first compound 0.1 µM
[9] = second compound 0.316 µM, first compound 0.316 µM
[10] = second compound 0.316 µM, first compound 1 µM
[11] = second compound 0.316 µM, first compound 3.16 µM
[12] = second compound 0.316 µM, first compound 10 µM
[13] = second compound 1 µM, first compound 0.0316 µM
[14] = second compound 1 µM, first compound 0.1 µM
[15] = second compound 1 µM, first compound 0.316 µM
[16] = second compound 1 µM, first compound 1 µM
[17] = second compound 1 µM, first compound 3.16 µM
[18] = second compound 1 µM, first compound 10 µM
[19] = second compound 3.16 µM, first compound 0.0316 µM
[20] = second compound 3.16 µM, first compound 0.1 µM
[21] = second compound 3.16 µM, first compound 0.316 µM
[22] = second compound 3.16 µM, first compound 1 µM
[23] = second compound 3.16 µM, first compound 3.16 µM
[24] = second compound 3.16 µM, first compound 10 µM
[25] = second compound 10 µM, first compound 0.0316 µM
[26] = second compound 10 µM, first compound 0.1 µM
[27] = second compound 10 µM, first compound 0.316 µM
[28] = second compound 10 µM, first compound 1 µM
[29] = second compound 10 µM, first compound 3.16 µM
[30] = second compound 10 µM, first compound 10 µM
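Further: spheroids exposed to compounds for 7 days before readout.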
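Wherever viability, T/C is given: 100% = DMSO vehicle control wells.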

For `CC1(C)CCC(CN2CCN(c3ccc(C(=O)NS(=O)(=O)c4ccc(NCC5CCOCC5)c([N+](=O)[O-])c4)c(Oc4cnc5[nH]ccc5c4)c3)CC2)=C(c2ccc(Cl)cc2)C1` + NC1CCC(NC2CC2c2ccccc2)CC1, the IC50 (second compound 0.1 µM) was > 10 µM, the IC50 (second compound 0.316 µM) was > 10 µM and the IC50 (second compound 1 µM) was > 10 µM. For the same molecule, the IC50 (second compound 3.16 µM) was > 10 µM, the IC50 (second compound 10 µM) was > 10 µM and the viability, T/C [1] was 105%. For the same molecule, the viability, T/C [2] was 124%, the viability, T/C [3] was 114% and the viability, T/C [4] was 105%. It also gave a viability, T/C [5] of 125%, a viability, T/C [6] of 124% and a viability, T/C [7] of 125%. For the same molecule, the viability, T/C [8] was 122%, the viability, T/C [9] was 116% and the viability, T/C [10] was 109%. It also gave a viability, T/C [11] of 117%, a viability, T/C [12] of 123% and a viability, T/C [13] of 125%. For the same molecule, the viability, T/C [14] was 114%, the viability, T/C [15] was 119% and the viability, T/C [16] was 126%. The viability, T/C [17] was 134%, the viability, T/C [18] was 136% and the viability, T/C [19] was 114%. It also gave a viability, T/C [20] of 130%, a viability, T/C [21] of 134% and a viability, T/C [22] of 114%. For the same molecule, the viability, T/C [23] was 117%, the viability, T/C [24] was 111% and the viability, T/C [25] was 128%. For the same molecule, the viability, T/C [26] was 117%, the viability, T/C [27] was 118% and the viability, T/C [28] was 122%. It also gave a viability, T/C [29] of 129% and a viability, T/C [30] of 102%.

With `CC1COCCN1c1cc(C2(S(C)(=N)=O)CC2)nc(-c2ccnc3[nH]ccc23)n1` (stereo not given) + NC1CCC(NC2CC2c2ccccc2)CC1 the IC50 (second compound 0.1 µM) was > 10 µM, the IC50 (second compound 0.316 µM) was > 10 µM and the IC50 (second compound 1 µM) was > 10 µM. For the same molecule, the IC50 (second compound 3.16 µM) was > 10 µM, the IC50 (second compound 10 µM) was > 10 µM and the viability, T/C [1] was 108%. It also gave a viability, T/C [2] of 106%, a viability, T/C [3] of 108% and a viability, T/C [4] of 116%. The viability, T/C [5] was 93.7%, the viability, T/C [6] was 92.1% and the viability, T/C [7] was 99.6%. For the same molecule, the viability, T/C [8] was 111%, the viability, T/C [9] was 107% and the viability, T/C [10] was 108%. For the same molecule, the viability, T/C [11] was 112%, the viability, T/C [12] was 98.6% and the viability, T/C [13] was 103%. The viability, T/C [14] was 123%, the viability, T/C [15] was 115% and the viability, T/C [16] was 113%. It also gave a viability, T/C [17] of 99.8%, a viability, T/C [18] of 94.9% and a viability, T/C [19] of 112%. It also gave a viability, T/C [20] of 103%, a viability, T/C [21] of 107% and a viability, T/C [22] of 106%. It also gave a viability, T/C [23] of 98.5%, a viability, T/C [24] of 92.7% and a viability, T/C [25] of 112%. For the same molecule, the viability, T/C [26] was 103%, the viability, T/C [27] was 111% and the viability, T/C [28] was 121%. It also gave a viability, T/C [29] of 106% and a viability, T/C [30] of 94.6%.
